Values after ≈ are worked out from the molar mass of the structure shown.
tested on: Candida albicans; experiment: Synergistic antifungal activity against Candida albicans 0304103 assessed as fractional inhibitory concentration index by measuring ratio of MIC80 for compound and synergetic / MIC80 for compound alone + MIC80 for fluconazole synergetic / MIC80 for fluconazole alone; type: functional

SMILES | fractional inhibitory concentration index (FICI)
Cc1noc2c1C(=O)c1ccccc1/C2=N/O | 0.063
CCO/N=C1/c2ccccc2C(=O)c2c(C)noc21 | 0.039
CCO/N=C1/c2ccsc2C(=O)c2c(C)noc21 | 0.047
Cc1noc2c1C(=O)c1sccc1/C2=N/OC(C)C | 0.063

tested on: Cryptococcus neoformans; experiment: Antifungal activity against Cryptococcus neoformans H99 assessed as reduction in fungal growth incubated for 72 hrs by liquid based microdilution method; type: functional

MIC80 [µg/mL] | SMILES
8 (≈ 35.1 µM) | Cc1noc2c1C(=O)c1ccccc1/C2=N/O
> 64 | CCO/N=C1/c2ccccc2C(=O)c2c(C)noc21
0.13 (≈ 0.496 µM) | CCO/N=C1/c2ccsc2C(=O)c2c(C)noc21
> 64 | Cc1noc2c1C(=O)c1sccc1/C2=N/OC(C)C

tested on: Candida tropicalis; experiment: Antifungal activity against Candida tropicalis 10186 assessed as reduction in fungal growth incubated for 48 hrs by liquid based microdilution method; type: functional

MIC80 [µg/mL] | SMILES
> 64 | Cc1noc2c1C(=O)c1ccccc1/C2=N/O
> 64 | CCO/N=C1/c2ccccc2C(=O)c2c(C)noc21
> 64 | CCO/N=C1/c2ccsc2C(=O)c2c(C)noc21
> 64 | Cc1noc2c1C(=O)c1sccc1/C2=N/OC(C)C

tested on: Cryptococcus neoformans; experiment: Antifungal activity against Cryptococcus neoformans ATCC 34877 assessed as reduction in fungal growth incubated for 72 hrs by liquid based microdilution method; type: functional

MIC80 [µg/mL] | SMILES
8 (≈ 35.1 µM) | Cc1noc2c1C(=O)c1ccccc1/C2=N/O
2 (≈ 7.63 µM) | CCO/N=C1/c2ccsc2C(=O)c2c(C)noc21

tested on: Nakaseomyces glabratus; experiment: Antifungal activity against Candida glabrata 9073 assessed as reduction in fungal growth incubated for 48 hrs by liquid based microdilution method; type: functional

MIC80 [µg/mL] | SMILES
> 64 | Cc1noc2c1C(=O)c1ccccc1/C2=N/O
> 64 | CCO/N=C1/c2ccccc2C(=O)c2c(C)noc21
> 64 | CCO/N=C1/c2ccsc2C(=O)c2c(C)noc21
> 64 | Cc1noc2c1C(=O)c1sccc1/C2=N/OC(C)C

tested on: Candida albicans; experiment: Antifungal activity against Candida albicans 0304103 assessed as reduction in fungal growth incubated for 48 hrs by liquid based microdilution method; type: functional

MIC80 [µg/mL] | SMILES
> 64 | Cc1noc2c1C(=O)c1ccccc1/C2=N/O
> 64 | CCO/N=C1/c2ccccc2C(=O)c2c(C)noc21
> 64 | CCO/N=C1/c2ccsc2C(=O)c2c(C)noc21
> 64 | Cc1noc2c1C(=O)c1sccc1/C2=N/OC(C)C

tested on: not listed separately; experiment: Antifungal activity against Cryptococcus gattii VGI ATCC 14116 assessed as reduction in fungal growth incubated for 72 hrs by liquid based microdilution method; type: functional

MIC80 [µg/mL] | SMILES
16 (≈ 70.1 µM) | Cc1noc2c1C(=O)c1ccccc1/C2=N/O
4 (≈ 15.3 µM) | CCO/N=C1/c2ccsc2C(=O)c2c(C)noc21

tested on: Candida albicans; experiment: Synergistic antifungal activity against Candida albicans 0304103 assessed as inhibition of fungal growth incubated for 48 hrs in presence of fluconazole by checkerboard microdilution assay; type: functional

MIC80 [µg/mL] | SMILES
2 | Cc1noc2c1C(=O)c1ccccc1/C2=N/O
2 | CCO/N=C1/c2ccccc2C(=O)c2c(C)noc21
2 | CCO/N=C1/c2ccsc2C(=O)c2c(C)noc21
2 | Cc1noc2c1C(=O)c1sccc1/C2=N/OC(C)C

tested on: Candida albicans; experiment: Antifungal activity against Candida albicans SC5314 assessed as reduction in fungal growth incubated for 48 hrs by liquid based microdilution method; type: functional

MIC80 [µg/mL] | SMILES
> 64 | Cc1noc2c1C(=O)c1ccccc1/C2=N/O
> 64 | CCO/N=C1/c2ccccc2C(=O)c2c(C)noc21
> 64 | CCO/N=C1/c2ccsc2C(=O)c2c(C)noc21
> 64 | Cc1noc2c1C(=O)c1sccc1/C2=N/OC(C)C

From ChEMBL document CHEMBL5518232, “Discovery of New Tricyclic Oxime Sampangine Derivatives as Potent Antifungal Agents for the Treatment of Cryptococcosis and Candidiasis” (J Med Chem, 2024)
